In patent US9675564B2, “Composition based on ubidecarenone” (Asoltech Srl, priority 2011, dated 2017):
Converted amounts (≈) assume the structure as drawn.

What was measured:
[1] = Solubility in water at 37° C. (excess powder, CoQ10 passing into solution by UV or HPLC); type: physicochemical; conditions: thermodynamic from solid
Method: The solubility in water at 37° C. (physiological temperature) of the composition according to the present invention was compared with that of the compositions in the examples of comparison.
Verification is carried out after 1 hour and 24 hours (balanced) using the suitable analytical method (for example UV or HPLC spectrophotometry) of the maximum quantity of coenzyme Q10 that passes into the solution.

H9C2 cells = assay: Absorption in cardiomyoblasts: intracell penetration and penetration of the mitochondrial membrane, CoQ10 quantified by HPLC; type: cell-based, rats; conditions: cultured cells after administration; FIG. 2
Method: Despite the large number of clinical studies on the effects of Coenzyme Q10 supplementation, there are very few experimental data concerning the content of coenzyme Q10 in mitochondria and the cell energy condition after supplementation. Probably, controversial results of clinical and in vitro studies are mainly due to the bio-availability of the form of coenzyme Q10 used.
For this analysis, T67 cells of human astrocytoma and H9C2 cells from rats, deriving from the heart, were cultured in a Dulbecco's modified Eagle medium (DMEM), supplemented with 10% of fetal bovine serum (FBS), 100 Ul/ml of penicillin, 100 μg/ml of streptomycin and 40 μg/ml of gentamicin, in an atmosphere of 5% CO2 at 37° C., with saturation humidity. The vitality of the cells and their number were measured using the exclusion method with Tripan blue (Lowry et al.). The mitochondria were isolated using known procedures (Chomyn, 1996). The cells treated were washed carefully with PBS before the extraction procedures. The extraction of the coenzyme Q10 from the isolated cells and mitochondria was performed as described by Takada et al. (Takada et al., 1984). The quantification of the coenzyme Q10 was done by means of HPLC analysis. […]

solubility at 1 h ([1]; after 1 hour): 1 µg/mL (≈ 1.16 µM)
solubility at 24 h ([1]; after 24 hours (balanced)): 4 µg/mL (≈ 4.63 µM)
CoQ10 passing from the whole cells to the mitochondria (H9C2 cells): 4%
Compound: COC1=C(OC)C(=O)C(C/C=C(\C)CC/C=C(\C)CC/C=C(\C)CC/C=C(\C)CC/C=C(\C)CC/C=C(\C)CC/C=C(\C)CC/C=C(\C)CC/C=C(\C)CCC=C(C)C)=C(C)C1=O [CoQ10, ubidecarenone]
